Data from US20110009435A1, “HETERO BICYCLIC CARBOXAMIDE DERIVATIVES AND THEIR PHARMACEUTICAL USE AND COMPOSITIONS” (Pfizer, Inc., priority 2007, published 2011).

Legend:
Type in all cases: biochemical
Human recombinant MMP-15 = molecular target: T1, Human recombinant MMP-15 (Homo sapiens, UniProt P51511); experiment: In vitro MMP inhibition assay, MMP-15 catalytic domain (fluorogenic peptide substrate cleavage, Ki); conditions: human MMP-15, catalytic domain (CD); read-out: hMMP Ki 15/CD
T1 construct: The catalytic domain of MMP-12 and MMP-15 enzymes were purchased commercially for these assays; purchased
T1 sequence (P51511 132-304 limits assumed): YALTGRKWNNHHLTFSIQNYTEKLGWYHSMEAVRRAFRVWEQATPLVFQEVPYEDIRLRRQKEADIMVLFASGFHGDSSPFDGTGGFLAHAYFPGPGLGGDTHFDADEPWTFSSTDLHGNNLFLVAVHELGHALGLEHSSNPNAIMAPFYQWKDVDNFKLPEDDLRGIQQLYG
Procedure: (§1) Matrix Metalloproteinase inhibitor compounds were analyzed in in vitro MMP Inhibition assays to determine their ability to inhibit the MMP cleavage of peptide substrates. Inhibition constants (Ki) were calculated from the assayed compound-MMP interactions.
(§2) Human recombinant MMP-1, MMP-2, MMP-3, MMP-7, MMP-9, MMP-12, MMP-13, MMP-14 and MMP-15 were used in these assays. The enzymes are prepared following known laboratory procedures. Protocols for the preparation and use of these enzymes are available in the scientific literature. See, e.g., Enzyme Nomenclature (Academic Press, San Diego, Calif., 1992) and the citations therein. See also Frije et al., J. Biol. Chem., 26(24), 16766-73 (1994).
(§3) The catalytic domain of MMP-12 and MMP-15 enzymes were purchased commercially for these assays.
(§4) The fluorogenic, methoxycoumarin-containing polypeptide substrate MCA-ArgProLeuGlyLeuDpaAlaArgGluArgNH2 was used as the MMP substrate in the MMP inhibition assays for human recombinant MMP-1, MMP-2, MMP-7, MMP-9, MMP-12, MMP-13, MMP-14 and MMP-15. Here, “MCA” is 7-methoxycoumarin-4-yl acetyl and “Dpa” is 3-(2,4-dinitrophenyl)-L-2,3-di-aminopropionyl group. In the absence of MMP inhibitory activity, the substrate is cleaved at the Gly-Leu peptide bond. The cleavage separates the highly fluorogenic peptide from the 2,4-dinitrophenyl quencher, resulting in an increase of fluorescent intensity.
(§5) For the human MMP-1, MMP-2, MMP-7, MMP-9, MMP-12, MMP-13, MMP-14 and MMP-15 assays, dilutions of the inhibitors (or salts thereof) were prepared in 100% dimethyl sulfoxide (DMSO). The stock solutions were diluted in Buffer A (100 mM Tris-HCl, 100 mM NaCl, 10 mM CaCl2, 0.005% polyoxyethylene 23 lauryl ether, pH 7.5) to obtain solutions with different compound concentrations, i.e., assay solutions with different concentrations of the assayed MMP inhibitory compound in 1% DMSO. The experiment controls contained the same amount of Buffer A/DMSO as the assayed sample, but contained no inhibitor.
(§6) To determine Ki, the inhibitor samples are incubated at room temperature for 1 hr in the presence of enzyme and then 4 μM of appropriate MMP substrate was added, and samples were analyzed on a Tecan SpectraFlour Plus plate reader. The excitation wavelength is 330 nm, and the emission (fluorescence) wavelength is 420 nm. In the absence of MMP inhibitory activity, the substrate is cleaved at the Gly-Leu bond resulting in an increase of relative fluorescence. Inhibition is observed as a reduced rate of increase in relative fluorescence.
(§7) The inhibitors are analyzed using a single low enzyme concentration with a single substrate concentration fixed at or below the Km. This protocol is a modification of method by Knight et al., FEBS Lett., 296(3), 263-266 (1992). Apparent inhibitory constants are determined by non-linear regression of reaction velocity as a function of inhibitor and enzyme concentration using Morrison's equation, as described by Kuzmic, Anal. Biochem. 286, 45-50 (2000). Modifications were made in the non-linear regression method to allow a common control reaction rate and effective enzyme concentration to be shared between all dose-response relationships on a given assay plate. Since the substrate concentration was chosen to be at or below the Km, the apparent Ki's from this analysis were reported as Ki's without correction for the influence of substrate.

[1] = molecular target: T2, catalytic domain of human recombinant MMP-3 (Homo sapiens, UniProt P08254); experiment: In vitro MMP inhibition assay, MMP-3 catalytic domain (fluorogenic peptide substrate cleavage, Ki); conditions: human MMP-3, catalytic domain (CD); read-out: hMMP Ki 03/CD
T2 construct: made in house
T2 sequence (P08254 100-272 limits assumed): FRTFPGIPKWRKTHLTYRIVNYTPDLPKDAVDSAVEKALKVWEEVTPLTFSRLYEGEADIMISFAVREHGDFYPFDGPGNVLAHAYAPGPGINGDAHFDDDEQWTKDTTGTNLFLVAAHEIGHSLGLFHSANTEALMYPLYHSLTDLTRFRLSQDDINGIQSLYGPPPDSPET
Procedure: as §1, §2
The catalytic domain MMP-3 cDNA may be used to express the catalytic domain enzyme in E. coli inclusion bodies. Then the enzyme is solubilized in urea, purified on a preparative […] reverse phase HPLC column, and refolded in the presence of zinc acetate and purified for use.
The fluorogenic, methoxycoumarin-containing polypeptide substrate Mca-Arg-Pro-Lys-Pro-Val-Glu-Nva-Trp-Arg-Lys(Dnp)-NH2 (Bachem catalog number M-2110) was used as the MMP substrate in the MMP inhibition assays for catalytic domain of human recombinant MMP-3 (which refers to the catalytic domain of stromelysin). Here, “MCA” is 7-methoxycoumarin-4-yl acetyl and “Dpa” is 3-(2,4-dinitrophenyl)-L-2,3-di-aminopropionyl group. In the absence of MMP inhibitory activity, the substrate is cleaved at the Gly-Leu peptide bond. The cleavage separates the highly fluorogenic peptide from the 2,4-dinitrophenyl quencher, resulting in an increase of fluorescent intensity.
For the human MMP-3 assay, dilutions of the inhibitors (or salts thereof) were prepared in 100% DMSO. The stock solutions were diluted in Buffer B (50 mM N-morpholinoethane sulfonate (“MES”), 100 mM NaCl, 10 mM CaCl2, 0.005% polyoxyethylene 23 lauryl ether, pH 6.0)) to obtain solutions with different compound concentrations, i.e., assay solutions with different concentrations of the assayed MMP inhibitory compound in 1% DMSO. The experiment controls contained the same amount of Buffer B/DMSO as the assayed sample, but contained no inhibitor.
as §6, §7

Human recombinant MMP-13 = molecular target: T3, Human recombinant MMP-13 (Homo sapiens, UniProt P45452); experiment: In vitro MMP inhibition assay, MMP-13 (fluorogenic peptide substrate cleavage, Ki); conditions: human MMP-13, full length (FL); read-out: hMMP Ki 13/FL
T3 construct: made in house; host or cells: baculovirus expression (insect cells)
Procedure: as §1, §2
The MMP-13 may be obtained as a proenzyme from a full-length cDNA clone using baculovirus expression, as described by V. A. Luckow, “Insect Cell Expression Technology,” Protein Engineering: Principles and Practice, pp. 183-218 (edited by J. L. Cleland et al., Wiley-Liss, Inc., 1996). The expressed proenzyme was first purified over a heparin agarose column, and then over a chelating zinc chloride column. Further details on baculovirus expression systems may be found in, for example, Luckow et al., J. Virol., 67, 4566-79 (1993). See also O'Reilly et al, Baculovirus Expression Vectors: A Laboratory Manual (W. H. Freeman and Co., New York, N.Y., 1992). See also King et al., The Baculovirus Expression System: A Laboratory Guide (Chapman & Hall, London, England, 1992).
All full length MMPs were activated using 4-aminophenylmercuric acetate (“APMA”, Sigma Chemical, St. Louis, Mo.) or trypsin. MMP-9 also was activated using human recombinant MMP-3 following standard cloning and purification techniques.
as §4, §5, §6
The inhibitors are analyzed using a single low enzyme concentration with a single substrate concentration fixed at or below the Km. This protocol is a modification of method by Knight et al., FEBS Lett., 296(3), 263-266 (1992). Apparent inhibitory constants are determined by non-linear regression of reaction velocity as a function of inhibitor and enzyme concentration using Morrison's equation, as described by Kuzmic, Anal. Biochem. 286, 45-50 (2000). […]

Human recombinant MMP-12 = molecular target: T4, Human recombinant MMP-12 (Homo sapiens, UniProt P39900); experiment: In vitro MMP inhibition assay, MMP-12 catalytic domain (fluorogenic peptide substrate cleavage, Ki); conditions: human MMP-12, catalytic domain (CD); read-out: hMMP Ki 12/CD
T4 construct: The catalytic domain of MMP-12 and MMP-15 enzymes were purchased commercially for these assays; purchased
T4 sequence (P39900 106-263 limits assumed): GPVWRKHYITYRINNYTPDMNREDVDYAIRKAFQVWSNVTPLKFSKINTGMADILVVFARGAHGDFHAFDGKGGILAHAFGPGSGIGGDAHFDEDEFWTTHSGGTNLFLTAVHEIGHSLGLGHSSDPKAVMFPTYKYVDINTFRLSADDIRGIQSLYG
Procedure: as §1, §2, §3, §4, §5, §6, §7

Human recombinant MMP-14 = molecular target: T5, Human recombinant MMP-14 (Homo sapiens, UniProt P50281); experiment: In vitro MMP inhibition assay, MMP-14 catalytic domain (fluorogenic peptide substrate cleavage, Ki); conditions: human MMP-14, catalytic domain (CD); read-out: hMMP Ki 14/CD
T5 construct: The MMP-14 cDNA may be used to express the catalytic domain enzyme in E. coli inclusion bodies; made in house
Procedure: as §1, §2
The MMP-14 cDNA may be used to express the catalytic domain enzyme in E. coli inclusion bodies. Then the enzyme is solubilized in urea, purified on a preparative […] reverse phase HPLC column, and refolded in the presence of zinc acetate and purified for use.
as §4, §5, §6
as §7, with “Since the substrate concentration was chosen to be at or below the Km, the apparent Ki's from this analysis were reported as Ki's without correction for the influence of substrate.” left out

SMILES: COc1cc(CNC(=O)c2nc3scc(COC[C@H]4CC[C@H](NS(C)(=O)=O)CC4)c3c(=O)[nH]2)ccc1F [Example 18, N-(4-Fluoro-3-methoxybenzyl)-5-[({trans-4-[(methylsulfonyl)amino]cyclohexyl}methoxy)methyl]-4-oxo-3,4-dihydrothieno[2,3-d]pyrimidine-2-carboxamide]
- Ki (Human recombinant MMP-15): > 10 µM
- Ki [1]: 1 µM
- Ki (Human recombinant MMP-13): 0.000732 µM
- Ki (Human recombinant MMP-12): > 10 µM
- Ki (Human recombinant MMP-14): > 10 µM

SMILES: COc1cc(CNC(=O)c2nc3scc(COC[C@H]4CC[C@H](NC(C)=O)CC4)c3c(=O)[nH]2)ccc1F [Example 19, 5-({[trans-4-(Acetylamino)cyclohexyl]methoxy}methyl)-N-(4-fluoro-3-methoxybenzyl)-4-oxo-3,4-dihydrothieno[2,3-d]pyrimidine-2-carboxamide]
- Ki (Human recombinant MMP-15): > 10 µM
- Ki [1]: 1.22 µM
- Ki (Human recombinant MMP-13): 0.00248 µM
- Ki (Human recombinant MMP-12): > 10 µM
- Ki (Human recombinant MMP-14): > 10 µM
